According to US9617602B2, “Methods and compositions for determining resistance to androgen receptor therapy” (Aragon Pharmaceuticals, Inc., priority 2012, dated 2017):

Experiments:
Type in all cases: cell-based, human
[1] = tested on: LNCaP cells; assay: Proliferation assay (CellTiter-Glo), agonist and antagonist mode; conditions: for viability at 0.0001 µM: Homo sapiens, 168 h, read-out: Antagonist Proliferation Assay (% Viability); for Agonist Proliferation Assay (% Viability): 7 days
[2] = tested on: LNCaP/AR(cs) cells; assay: as above; conditions: for viability at 0.0001 µM: Homo sapiens, LNCaP/AR, 168 h, read-out: Antagonist Proliferation Assay (% Viability); for Agonist Proliferation Assay (% Viability): LNCaP/AR(cs), 7 days
[3] = tested on: Class 1 ARN-509- and MDV3100-resistant cell lines; assay: as above; conditions: for Agonist Proliferation Assay (% Viability): Class 1, 7 days; for viability at 0.0001 µM: Homo sapiens, 168 h, read-out: Antagonist Proliferation Assay (% Viability)
[4] = tested on: Class 2 MDV3100- and ARN-509-resistant cell lines; assay: as above; conditions: for Agonist Proliferation Assay (% Viability): Class 2, 7 days; for viability at 0.0001 µM: Homo sapiens, 168 h, read-out: Antagonist Proliferation Assay (% Viability)
[5] = tested on: LNCaP cells; assay: Transcriptional reporter assay (probasin-luciferase)
Protocol: (§1) With the exception of the LNCaP/AR(cs)-Luc cells that contain an integrated androgen responsive reporter, cells were transiently transfected using Lipofectin® (Life Technologies) according to the manufacturer's protocol. […] Following transfection, the cells were incubated for 4 hours.
(§2) Following 48 hour incubation the medium was removed and the cells were lysed in 40 μL of lysis buffer (25 mM Tris Phosphate, 2 mM CDTA, 10% Glycerol, 0.5% Triton X-100, 2 mM DTT).

[6] = tested on: LNCaP/AR(cs) cells; assay: as above
Protocol: as §1, §2

[7] = tested on: Class 1 resistant cell lines; assay: as above; conditions: Class 1
Protocol: as §1, §2

[8] = tested on: Class 2 resistant cell lines; assay: as above; conditions: Class 2
Protocol: as §1, §2

[9] = tested on: LNCaP cells; assay: Endogenous gene transcriptional assay (real-time PCR of androgen responsive genes); conditions: 1 nM R1881 or 30 μM compound, vehicle=1.00
Protocol: (§3) Total RNA was isolated using the Aurum™ total RNA isolation kit (BIO-RAD, Hercules, Calif.). RNA (1 μg) was reverse transcribed using the iScript cDNA synthesis kit (BIO-RAD, Hercules, Calif.) to produce cDNA. Real-time PCR was performed using the Applied Biosystems 7900HT instrument and SYBR Green PCR Master Mix (Applied Biosystems, Foster City, Calif.). PCR reactions were performed in 6 μL according to the manufacturer's protocol and a thermocycle protocol of 95° C. for 10 minutes followed by 40 cycles of 95° C. for 15 seconds and 58° C. for 1 minute. Androgen responsive gene (PSA, SLUG, TMPRSS2, STEAP4, FKBP5, ORM1, NOV, FASN, NKX3.1, AMIGO2, BDNF, CAMK2N1, HPGD, NCAPD3, PLD1) expression was normalized to GAPDH expression and expressed relative to vehicle treatment of the parental cell line.
(§4) Gene expression was normalized to GAPDH as described above.

[10] = tested on: LNCaP/AR(cs) cells; assay: as above
Protocol: as §3, §4

[11] = tested on: LNCaP ARN-509r1 cells; assay: as above; conditions: 1 nM R1881 or 30 μM compound, vehicle=1.00
Protocol: as §3, §4

[12] = tested on: LNCaP ARN-509r2 cells; assay: as above; conditions: 1 nM R1881 or 30 μM compound, vehicle=1.00
Protocol: as §3, §4

[13] = tested on: LNCaP/AR-Luc cells; assay: as above; conditions: 1 nM R1881 or 30 μM compound, vehicle=1.00
Protocol: as §3, §4

[14] = tested on: AR in LNCaP/AR(cs) cells; assay: AR chromatin immunoprecipitation (ChIP) of AR target genes; conditions: 1 nM R1881, 4 hours
Source text: The samples were amplified on the ABI 7900HT instrument.

[15] = [Antagonists] = 50 μM in presence of R1881
[16] = Table 4A, 1 nM R1881 or 30 μM compound, vehicle=1.00
[17] = Tables 9A/9B, 1 nM R1881, vehicle=1.00

Compound: CC(O)(CS(=O)(=O)c1ccc(F)cc1)C(=O)Nc1ccc(C#N)c(C(F)(F)F)c1 (stereo not shown) [Bicalutamide, bicalutamide]
- viability at 0.0001 µM [1]: < 30%
- Agonist Proliferation Assay (% Viability) ([1]; [Antagonists] = 10 μM): + (‘+’ = <30)
- viability at 0.0001 µM [2]: < 30%
- Agonist Proliferation Assay (% Viability) ([2]; [Antagonists] = 10 μM): + (‘+’ = <30)
- Agonist Proliferation Assay (% Viability) ([3]; [Antagonists] = 10 μM): ++ (‘++’ = >30)
- viability at 0.0001 µM [3]: > 30%
- Agonist Proliferation Assay (% Viability) ([4]; [Antagonists] = 10 μM): + (‘+’ = <30)
- viability at 0.0001 µM [4]: > 30%
- Agonist Transcriptional Reporter Assay (% Max Activity) ([5]; [Antagonists] = 50 μM): + (‘+’ = <5)
- Antagonist Transcriptional Reporter Assay (% Max Activity) [5, 15]: + (‘+’ = <5)
- Agonist Transcriptional Reporter Assay (% Max Activity) ([6]; [Antagonists] = 50 μM): + (‘+’ = <5)
- Antagonist Transcriptional Reporter Assay (% Max Activity) [6, 15]: + (‘+’ = <5)
- Agonist Transcriptional Reporter Assay (% Max Activity) ([7]; [Antagonists] = 50 μM): ++ (‘++’ = >5)
- Antagonist Transcriptional Reporter Assay (% Max Activity) [7, 15]: ++ (‘++’ = >5)
- Agonist Transcriptional Reporter Assay (% Max Activity) ([8]; [Antagonists] = 50 μM): + (‘+’ = <5)
- Antagonist Transcriptional Reporter Assay (% Max Activity) [8, 15]: + (‘+’ = <5)

Compound: C[C@]1(O)CC[C@H]2[C@@H]3CCC4=CC(=O)CCC4=C3C=C[C@@]21C [R1881, methyltrienolone]
- viability at 0.0001 µM [1]: 100%
- Agonist Proliferation Assay (% Viability) ([1]; [R1881] = 0.1 nM): 100.0%
- viability at 0.0001 µM [2]: 100%
- Agonist Proliferation Assay (% Viability) ([2]; [R1881] = 0.1 nM): 100.0%
- Agonist Proliferation Assay (% Viability) ([3]; [R1881] = 0.1 nM): 100.0%
- viability at 0.0001 µM [3]: 100%
- Effect of R1881 on proliferation of Class 1 cells ([3]; high concentrations): inhibits proliferation
- Agonist Proliferation Assay (% Viability) ([4]; [R1881] = 0.1 nM): 100.0%
- viability at 0.0001 µM [4]: 100%
- Agonist Transcriptional Reporter Assay (% Max Activity) ([5]; [R1881] = 10 nM): >90%
- Antagonist Transcriptional Reporter Assay (% Max Activity) ([5]; [R1881] = 10 nM): >90%
- Agonist Transcriptional Reporter Assay (% Max Activity) ([6]; [R1881] = 10 nM): >90%
- Antagonist Transcriptional Reporter Assay (% Max Activity) ([6]; [R1881] = 10 nM): >90%
- Agonist Transcriptional Reporter Assay (% Max Activity) ([7]; [R1881] = 10 nM): >90%
- Antagonist Transcriptional Reporter Assay (% Max Activity) ([7]; [R1881] = 10 nM): >90%
- Agonist Transcriptional Reporter Assay (% Max Activity) ([8]; [R1881] = 10 nM): >90%
- Antagonist Transcriptional Reporter Assay (% Max Activity) ([8]; [R1881] = 10 nM): >90%
- AMIGO2 gene expression [9]: 0.68
- BDNF gene expression [9]: 0.40
- CAM2KN1 gene expression [9]: 0.13
- FASN gene expression [9]: 5.58
- FKBP5 gene expression [9]: 54.95
- HPGD gene expression [9]: 100.43
- NCAPD3 gene expression [9]: 104.69
- NKX3.1 gene expression [9]: 30.06
- NOV gene expression [9]: 0.15
- ORM1 gene expression [9]: 873.10
- PLD1 gene expression [9]: 0.02
- PSA gene expression [9]: 47.84
- SLUG gene expression [9]: 129.79
- STEAP4 gene expression [9]: 639.15
- TMPRSS2 gene expression [9]: 22.16
- AMIGO2 gene expression [10, 16]: 0.54
- BDNF gene expression [10, 16]: 0.48
- CAM2KN1 gene expression [10, 16]: 0.05
- FASN gene expression [10, 16]: 7.11
- FKBP5 gene expression [10, 16]: 97.01
- HPGD gene expression [10, 16]: 183.55
- NCAPD3 gene expression [10, 16]: 93.05
- NKX3.1 gene expression [10, 16]: 8.82
- NOV gene expression [10, 16]: 0.04
- ORM1 gene expression [10, 16]: 3444.31
- PLD1 gene expression [10, 16]: 0.02
- PSA gene expression [10, 16]: 19.16
- SLUG gene expression [10, 16]: 89.88
- STEAP4 gene expression [10, 16]: 1314.23
- TMPRSS2 gene expression [10, 16]: 17.51
- AMIGO2 gene expression [10, 17]: 0.98
- BDNF gene expression [10, 17]: 0.86
- CAM2KN1 gene expression [10, 17]: 0.04
- FASN gene expression [10, 17]: 4.12
- FKBP5 gene expression [10, 17]: 100.51
- HPGD gene expression [10, 17]: 324.60
- NCAPD3 gene expression [10, 17]: 95.54
- NKX3.1 gene expression [10, 17]: 12.72
- NOV gene expression [10, 17]: 0.05
- ORM1 gene expression [10, 17]: 6987.01
- PLD1 gene expression [10, 17]: 0.03
- PSA gene expression [10, 17]: 22.14
- SLUG gene expression [10, 17]: 91.84
- STEAP4 gene expression [10, 17]: 1498.46
- TMPRSS2 gene expression [10, 17]: 35.42
- AMIGO2 gene expression [11]: 0.21
- BDNF gene expression [11]: 0.31
- CAM2KN1 gene expression [11]: 0.01
- FASN gene expression [11]: 3.12
- FKBP5 gene expression [11]: 53.45
- HPGD gene expression [11]: 61.39
- NCAPD3 gene expression [11]: 90.51
- NKX3.1 gene expression [11]: 8.11
- NOV gene expression [11]: 0.03
- ORM1 gene expression [11]: 1296.13
- PLD1 gene expression [11]: 0.03
- PSA gene expression [11]: 85.63
- SLUG gene expression [11]: 164.28
- STEAP4 gene expression [11]: 1184.45
- TMPRSS2 gene expression [11]: 37.27
- AMIGO2 gene expression [12]: 0.55
- BDNF gene expression [12]: 0.47
- CAM2KN1 gene expression [12]: 0.02
- FASN gene expression [12]: 4.82
- FKBP5 gene expression [12]: 48.50
- HPGD gene expression [12]: 59.30
- NCAPD3 gene expression [12]: 54.95
- NKX3.1 gene expression [12]: 10.20
- NOV gene expression [12]: 0.07
- ORM1 gene expression [12]: 625.99
- PLD1 gene expression [12]: 0.02
- PSA gene expression [12]: 7.89
- SLUG gene expression [12]: 77.17
- STEAP4 gene expression [12]: 377.41
- TMPRSS2 gene expression [12]: 15.14
- AMIGO2 gene expression [13]: 0.54
- BDNF gene expression [13]: 0.18
- CAM2KN1 gene expression [13]: 0.11
- FASN gene expression [13]: 3.48
- FKBP5 gene expression [13]: 20.82
- HPGD gene expression [13]: 2.41
- NCAPD3 gene expression [13]: 17.27
- NKX3.1 gene expression [13]: 11.24
- NOV gene expression [13]: 0.47
- ORM1 gene expression [13]: 7.89
- PLD1 gene expression [13]: 0.15
- PSA gene expression [13]: 2.10
- SLUG gene expression [13]: 48.84
- STEAP4 gene expression [13]: 20.25
- TMPRSS2 gene expression [13]: 3.46
- AR DNA binding (ChIP), LNCaP/AR(cs) cells [14]: promoted AR DNA
